Patent US6365549B2, “Methods of blocking an ethylene response in plants using cyclopropene derivatives” (North Carolina State University, priority 1999, dated 2002)

Columns and labels:
Type in all cases: in vivo
[1] = test system: Patio variety tomato seedlings; test: Tomato epinasty test, spray application treatment; details: applied as a spray; ethylene 10 ppm v/v; scale of 0 to 10, 10 complete protection
Method: The test procedure is designed to determine the ability of an compound according to the present invention to block the epinastic growth response induced by ethylene in tomato plants when the compound is administered either as a volatile gas or as a component of a spray solution.
Treatment chambers are of an appropriate size for the test plants and are airtight. Each is fitted with a reusable septum to be used for injection of ethylene.
Test plants are Patio variety tomato seedlings planted two plants per three inch square plastic pot.
Spray application treatment entails using a DeVilbiss atomizer to completely cover all foliage and stems of two pots of Patio var. tomato plants with the appropriate amount of experimental compound dissolved in 10% acetone/90% water with 0.05% Silwett L-77 surfactant. Plants are air-dried in a drying hood for four hours then transferred to a 4.8 L polystyrene chamber which is sealed.
Ethylene gas equal to 10 ppm v/v final concentration is injected into the sealed chamber. Sixteen hours later the chambers are opened in an exhaust hood, allowed to air and the plants scored visually for the degree of protection against ethylene-induced epinasty conferred by the experimental compound when compared to ethylene treated and untreated controls on a scale of 0 to 10. A rating of 10 means complete protection. […]

banana [2] = test: Time of protection (insensitivity to ethylene) of bananas, compounds of the invention; details: saturating amount (at least 10 times minimum) for 24 hours, daily challenge with 333 μl/l ethylene 12-15 hours
Method: To obtain the time of protection, bananas were exposed to a saturating amount of the compound for 24 hours (this was done as described in Example 1 above and at least 10 times the minimum protection amount was used). After exposure, bananas were removed from the jars and each day individual bananas were exposed to 333 μl/l of ethylene for 12-15 hours. The day the bananas responded to ethylene was recorded as the protection time.

banana [3] = test: Minimum concentration protecting bananas from 333 μl/l ethylene (compound on filter paper in 3-liter jar)
Method: To obtain the minimum concentration that protected bananas from 333 μl/l of ethylene, compounds according to the present invention were applied to bananas according to the method described herein. A known amount of the active compound was placed on filter paper in a 3-liter jar to facilitate evaporation into the vapor state. The compounds were applied in an ethyl ether solution because the amount used was potentially too small to apply unless they were in solution. The amount of ether (about 10 μl in 3 l) was without effect when applied alone on a banana contained in a 3-liter jar. The jar was sealed and the banana was removed after 4 hours of exposure. At the end of exposure, the banana was treated with 333 μl/l of ethylene in a 3-liter jar for 12-15 hours. It was then observed for ripening. The minimum concentration is the concentration that protected the bananas from 333 μl/l of ethylene. Ten microliters/liter of ethylene is usually considered to be a saturating amount. This procedure was repeated for 8-, 24- and 48-hour treatment times to determine the minimum concentration of active compounds of the present invention needed to provide protection from 333 μl/l of ethylene for a given treatment time.

[4] = test system: Patio variety tomato seedlings; test: Tomato epinasty test, volatile gas treatment; details: Gas 10 ppm; ethylene 10 ppm v/v; scale of 0 to 10, 10 complete protection, 0 no protection
Method: The test procedure is designed to determine the ability of an compound according to the present invention to block the epinastic growth response induced by ethylene in tomato plants when the compound is administered either as a volatile gas or as a component of a spray solution. Treatment chambers are of an appropriate size for the test plants and are airtight. Each is fitted with a reusable septum to be used for injection of ethylene. Test plants are Patio variety tomato seedlings planted two plants per three inch square plastic pot. Volatile gas treatment entails placing two pots of Patio var. tomatoes into a polystyrene 4.8 L volume treatment chamber along with one-half (upper or lower section) of a 50×9 mm plastic Petri dish containing a Gelman filter pad. The appropriate amount of experimental compound, dissolved in 1.0 ml acetone, is pipetted onto the filter pad and the chamber immediately sealed. Four hours later ethylene gas equal to 10 ppm v/v final concentration is injected into the sealed chamber. Sixteen hours later the chambers are opened in an exhaust hood, allowed to air and the plants scored visually for the degree of protection against ethylene-induced epinasty conferred by the experimental compound when compared to ethylene treated and untreated controls on a scale of 0 to 10. A rating of 10 means complete protection. A rating of 0 means no protection from the effects of ethylene.

[5] = Table 2 (values equal the 24-hour treatment of Table 1)
[6] = treatment time 4 hours, then 333 μl/l ethylene 12-15 hours
[7] = treatment time 8 hours, then 333 μl/l ethylene 12-15 hours
[8] = treatment time 24 hours, then 333 μl/l ethylene 12-15 hours
[9] = treatment time 48 hours, then 333 μl/l ethylene 12-15 hours

Row | Compound | Protection against ethylene-induced epinasty, rating [1] | Time of Insensitivity (banana [2]) [days] | Minimum Concentration (banana [3]; [5]) [nl/l] | Minimum Concentration (banana [3]; [6]) [nl/l] | Minimum Concentration (banana [3]; [7]) [nl/l] | Minimum Concentration (banana [3]; [8]) [nl/l] | Minimum Concentration (banana [3]; [9]) [nl/l] | Protection against ethylene-induced epinasty, rating [4]
1 | CCCCC1=CCC1 [1-butylcyclobutene, reference compound] | 5 | – | – | – | – | – | – | –
2 | CCCCCC1=CCC1 [1-pentylcyclobutene] | 10 | – | – | – | – | – | – | –
3 | CCCCCCC1=CC1 [Compound 1, 1-Hexyl-cyclopropene] | – | 20 | 0.4 | 12.0 | 0.8 | 0.4 | 0.3 | 10
4 | CCCCCCCCC1=CC1 [Compound 23, 1-octylcyclopropene] | – | 25 | 0.3 | 0.8 | 0.45 | 0.3 | 0.25 | 10
